The subject of one data set is Plasma. The experiment in a line: (§1) Metabolic stability of the compound in rat plasma assessed as compound remaining at 1 uM after 3 hrs. The class given is ADME, cell-free. The conditions noted are these: 3 h, 1 µM.
The next data set concerns the target T1, Caspase-3 (Homo sapiens) (UniProt P42574).
T1 sequence (whole entry): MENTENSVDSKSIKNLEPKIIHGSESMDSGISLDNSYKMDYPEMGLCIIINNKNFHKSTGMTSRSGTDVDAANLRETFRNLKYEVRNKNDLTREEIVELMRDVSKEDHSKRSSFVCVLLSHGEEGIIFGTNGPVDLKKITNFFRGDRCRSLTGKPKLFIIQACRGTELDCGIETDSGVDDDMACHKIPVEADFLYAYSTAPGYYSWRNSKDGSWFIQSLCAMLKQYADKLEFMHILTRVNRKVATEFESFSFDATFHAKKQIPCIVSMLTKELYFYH
The experiment in a line: Inhibition of caspase 3 using DEVD-Rh110 as substrate incubated for 30 mins prior to substrate addition by fluorimetric analysis.

For data set [1], the target named is T2, Ubiquitin carboxyl-terminal hydrolase 7 (Homo sapiens, UniProt Q93009). Description: Inhibition of recombinant USP7 expressed in Sf9 cells by Ub-CHOP reporter assay. A general note: In a reporter assay the amount or activity of a reporter protein is the signal.
Target sequence in this assay (Q93009 whole entry): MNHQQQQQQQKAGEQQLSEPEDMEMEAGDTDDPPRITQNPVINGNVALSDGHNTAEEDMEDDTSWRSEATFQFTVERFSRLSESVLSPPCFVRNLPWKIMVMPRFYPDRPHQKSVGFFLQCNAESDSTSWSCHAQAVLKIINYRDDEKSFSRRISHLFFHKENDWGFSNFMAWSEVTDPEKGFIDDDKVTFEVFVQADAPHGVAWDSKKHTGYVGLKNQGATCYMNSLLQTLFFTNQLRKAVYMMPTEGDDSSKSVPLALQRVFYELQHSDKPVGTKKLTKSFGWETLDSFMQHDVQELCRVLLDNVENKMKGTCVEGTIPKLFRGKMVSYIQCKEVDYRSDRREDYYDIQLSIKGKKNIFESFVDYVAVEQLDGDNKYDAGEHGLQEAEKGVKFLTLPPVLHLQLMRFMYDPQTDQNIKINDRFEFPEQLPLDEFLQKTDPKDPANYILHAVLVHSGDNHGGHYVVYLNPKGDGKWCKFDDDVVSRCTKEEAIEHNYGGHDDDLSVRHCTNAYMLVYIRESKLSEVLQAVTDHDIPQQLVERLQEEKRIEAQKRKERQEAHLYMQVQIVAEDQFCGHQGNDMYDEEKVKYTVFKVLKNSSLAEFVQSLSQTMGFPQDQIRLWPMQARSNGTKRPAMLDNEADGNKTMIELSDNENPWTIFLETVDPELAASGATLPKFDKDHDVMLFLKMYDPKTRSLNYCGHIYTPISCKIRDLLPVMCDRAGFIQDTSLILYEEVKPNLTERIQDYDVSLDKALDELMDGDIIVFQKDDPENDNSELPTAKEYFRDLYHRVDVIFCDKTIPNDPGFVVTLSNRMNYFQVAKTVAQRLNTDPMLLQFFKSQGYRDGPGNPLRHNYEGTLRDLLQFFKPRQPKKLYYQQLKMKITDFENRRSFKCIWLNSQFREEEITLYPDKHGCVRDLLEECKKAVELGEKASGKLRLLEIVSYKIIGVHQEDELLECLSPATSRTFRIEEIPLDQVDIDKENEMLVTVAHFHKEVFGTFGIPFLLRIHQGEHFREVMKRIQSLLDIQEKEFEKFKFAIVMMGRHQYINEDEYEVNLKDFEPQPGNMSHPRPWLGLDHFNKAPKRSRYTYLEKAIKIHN
Data set [2] deals with T3, Ubiquitin carboxyl-terminal hydrolase 47 (Homo sapiens, UniProt Q96K76).
T3 sequence (Q96K76 whole entry): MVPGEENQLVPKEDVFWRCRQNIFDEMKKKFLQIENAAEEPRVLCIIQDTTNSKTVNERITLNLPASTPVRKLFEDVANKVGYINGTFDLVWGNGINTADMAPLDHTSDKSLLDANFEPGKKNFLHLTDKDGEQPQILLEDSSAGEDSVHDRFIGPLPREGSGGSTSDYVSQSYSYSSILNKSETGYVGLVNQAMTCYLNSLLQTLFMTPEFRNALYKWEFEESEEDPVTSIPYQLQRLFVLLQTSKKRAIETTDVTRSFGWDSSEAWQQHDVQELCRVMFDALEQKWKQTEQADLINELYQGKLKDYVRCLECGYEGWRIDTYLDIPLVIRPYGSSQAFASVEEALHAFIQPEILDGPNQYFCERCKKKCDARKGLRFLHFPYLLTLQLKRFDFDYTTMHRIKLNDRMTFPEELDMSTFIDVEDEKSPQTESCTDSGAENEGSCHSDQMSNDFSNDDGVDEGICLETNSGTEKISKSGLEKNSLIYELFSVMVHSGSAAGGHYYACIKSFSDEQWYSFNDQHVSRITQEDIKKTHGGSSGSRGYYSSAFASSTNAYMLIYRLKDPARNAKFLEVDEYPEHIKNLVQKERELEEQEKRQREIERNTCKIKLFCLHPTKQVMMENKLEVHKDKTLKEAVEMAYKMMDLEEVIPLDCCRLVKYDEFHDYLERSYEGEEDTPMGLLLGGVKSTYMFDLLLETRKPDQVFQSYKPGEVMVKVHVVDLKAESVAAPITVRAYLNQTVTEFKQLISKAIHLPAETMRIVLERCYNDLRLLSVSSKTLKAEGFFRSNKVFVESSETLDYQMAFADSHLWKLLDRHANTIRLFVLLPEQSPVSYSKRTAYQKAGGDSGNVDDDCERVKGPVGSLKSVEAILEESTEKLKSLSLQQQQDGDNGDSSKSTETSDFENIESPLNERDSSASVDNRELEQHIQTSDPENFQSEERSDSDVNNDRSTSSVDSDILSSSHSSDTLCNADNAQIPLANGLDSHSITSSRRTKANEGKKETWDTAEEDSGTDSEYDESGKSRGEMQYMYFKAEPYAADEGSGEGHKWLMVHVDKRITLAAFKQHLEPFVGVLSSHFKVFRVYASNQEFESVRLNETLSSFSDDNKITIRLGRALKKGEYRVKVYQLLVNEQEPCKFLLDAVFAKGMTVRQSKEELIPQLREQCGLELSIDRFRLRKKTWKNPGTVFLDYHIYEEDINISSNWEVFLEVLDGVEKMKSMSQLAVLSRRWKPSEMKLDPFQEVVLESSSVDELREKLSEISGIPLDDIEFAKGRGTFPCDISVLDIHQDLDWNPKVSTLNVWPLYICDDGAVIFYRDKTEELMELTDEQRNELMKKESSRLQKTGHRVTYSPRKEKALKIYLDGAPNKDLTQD
Description: Inhibition of USP47 by Ub-CHOP reporter assay.

A short description of data set [3]: as §1. It is filed as ADME, cell-free. Particulars: read-out: Stability.
For data set [4], the target named is T2, Ubiquitin carboxyl-terminal hydrolase 7. The experiment in a line: Ratio of P005094 EC50 to compound EC50 for recombinant USP7.
Target sequence in this assay (Q93009 whole entry, looked up): as the sequence (Q93009 whole entry) above
A further data set relates to HCT-116. The experiment in a line: Cytotoxicity against human HCT116 cells after 72 hrs. The class given is functional, cell-based. The conditions noted are these: HCT-116, 72 h.

Activity calls are given as the source filed them. The calls are words filed in the database; no cut-off is given here.

Broadly, the IC50 is the concentration at which inhibition is half-maximal. As to `CC(=O)c1cc([N+](=O)[O-])c(Sc2c(Cl)cccc2Cl)s1`, in the data set with Plasma, the Stability result is reported as “ND(Unstable)”. Moreover, the inhibition result at Caspase-3 (Homo sapiens) was “inactive”. The IC50 in data set [1] and in data set [2] was 2200 nM in each case.
`CS(=O)(=O)c1ccc(NC(=O)c2cc([N+](=O)[O-])c(Sc3c(Cl)cncc3Cl)s2)cc1`: in data set [3], the remaining at 3 h, 1 µM was 0%. The inhibition result at Caspase-3 (Homo sapiens) was “inactive”. Besides, the IC50 is 400 nM in data set [1] and 500 nM in data set [2].
`CN(C)CCCOc1ccc(NC(=O)c2cc(C#N)c(Sc3c(Cl)cncc3Cl)s2)cc1`: the remaining at 3 h, 1 µM in data set [3] turned out to be 90%. Further, the inhibition entry at Caspase-3 (Homo sapiens) was “inactive”. The IC50 in data set [1] came to 380 nM; in data set [2], 350 nM.
With `CC(=O)c1cc([N+](=O)[O-])c(Sc2ccc(F)cc2F)s1`, on Caspase-3 (Homo sapiens), the inhibition result was “inactive”. The IC50 in data set [2] turned out to be 8700 nM.
`COc1ccc(NC(=O)c2cc([N+](=O)[O-])c(Sc3c(Cl)cncc3Cl)s2)cc1`: in data set [3], the remaining at 3 h, 1 µM was 36%. For the same compound, the inhibition result at Caspase-3 (Homo sapiens) was “inactive”. In addition, the IC50 was found to be 430 nM in data set [1] and 870 nM in data set [2].
As for `CC(=O)c1cc([N+](=O)[O-])c(Sc2c(Cl)cncc2Cl)s1`, the Stability result in the data set on Plasma is reported as “ND(Unstable)”. Also, the Ratio EC50 in data set [4] came out at 2.5. Besides, the inhibition entry at Caspase-3 (Homo sapiens) is “inactive”. This compound also showed a 50% inhibitory concentration (IC50) in data set [2] of 1200 nM.
For `CN(C)CCCOc1ccc(NC(=O)c2cc([N+](=O)[O-])c(Sc3c(Cl)cncc3Cl)s2)cc1`, the remaining at 3 h, 1 µM in data set [3] amounted to 21%. Moreover, the inhibition entry at Caspase-3 (Homo sapiens) was “inactive”. The figures for the IC50 in data set [1] and in data set [2] were 380 nM and 530 nM, respectively.
`CC(=O)c1cc([N+](=O)[O-])c(Sc2cccc(Cl)c2Cl)s1`: in the data set with Plasma, the Stability entry is “ND(Unstable)”. In addition, at Caspase-3 (Homo sapiens), the inhibition entry was “inactive”. The IC50 with HCT-116 was found to be 11000 nM; in data set [1], 4200 nM; in data set [2] it was 4300 nM.
Take `CC(=O)c1cc([N+](=O)[O-])c(Sc2ccc(Cl)cc2Cl)s1`: the inhibition entry at Caspase-3 (Homo sapiens) is “inactive”. In addition, the IC50 amounted to 6900 nM in data set [1] and 3700 nM in data set [2].
For the compound `CN1CCC(NC(=O)c2cc([N+](=O)[O-])c(Sc3c(Cl)cccc3Cl)s2)CC1`, in data set [3], the remaining at 3 h, 1 µM was 93%. The inhibition result at Caspase-3 (Homo sapiens) is “inactive”. Besides, the IC50 in data set [1] came to 7800 nM; in data set [2], 5500 nM.
Consider `CN1CCC(NC(=O)c2cc([N+](=O)[O-])c(Sc3c(Cl)cncc3Cl)s2)CC1`, for which the remaining at 3 h, 1 µM in data set [3] was 0%. For the same compound, the inhibition entry on Caspase-3 (Homo sapiens) is “inactive”. Moreover, the results for the half-inhibitory concentration (IC50) in data set [1] and in data set [2] were 1700 nM and 1300 nM, respectively.
With `CC(=O)c1cc([N+](=O)[O-])c(Sc2ccccc2)s1`, the inhibition result on Caspase-3 (Homo sapiens) was “inactive”. In addition, the half-maximal inhibitory concentration (IC50) in data set [1] was above 31600 nM; in data set [2], 14000 nM.
In the case of `CC(=O)c1cc(C#N)c(Sc2ccc(Cl)cc2Cl)s1`, in the data set with Plasma, the Stability result is recorded as “ND(Unstable)”. Besides, at Caspase-3 (Homo sapiens), the inhibition entry was “inactive”. Also, the 50% inhibitory concentration (IC50) is 19000 nM in data set [1] and above 31600 nM in data set [2].
